From patent publication EP0435725B1, “DNA having the genetic information of phospholipase D and its use” (Asahi Kasei Kogyo Kabushiki Kaisha, priority 1989, dated 1991)

tested on: phospholipase D; experiment: Substrate specificity of phospholipase D (choline release, choline oxidase/peroxidase colorimetry at 500 nm); type: biochemical, Streptomyces chromofuscus; settings: substrate emulsion 10 mM, 0.1 ml; 37°C, 10 minutes, pH 8.0; relative to activity on lysolecithin as 100
Procedure: To the reaction mixture having a composition as above was added 0.05 ml of the enzyme solution. After reaction it 37°C for 10 minutes, the mixture was boiled for 5 minutes to stop the reaction. The reaction solution was cooled to 37°C. Then, 0.1 ml of 4-aminoantipyrine (3 mg/ml), 0.1 ml of Phenol (2 mg/ml), 0.1 ml of peroxidase (2 U/ml), 0.1 ml of choline oxidase (30 U/ml) and 0.1 ml of water were added to the solution, the reaction was conducted at 37°C for 20 minutes before adding 2 ml of 1% Triton X100 to the reaction mixture for measuring the absorbance at 500 nm. It is defined that 1 Unit (U) of phospholipase D has an enzyme activity of producing 1 […] of choline. The enzyme activity is calculated from the following equation: U/ml = ΔA₅₀₀ x 0.55 [formula] wherein ΔA₅₀₀ denotes the absorbance at 500 nm.
The same procedure as described above for the reaction solution for the measurement of the activity was repeated except that emulsions (10 mM, 0.1 ml) of lecithin, lysolecithin and sphingomyelin, respectively, as substrates were used. The amount of choline was determined, and the relative enzyme activities are calculated in terms of the enzyme activity to lysolecithin as 100.

| Substance | Relative Activity [%] |
| --- | --- |
| phosphatidylcholine [Lecithin] | 51 |
| Lysolecithin | 100 |
| Sphingomyelin | 19 |
